Test results reported in article PMC12935919 (Frontiers in Pharmacology, 2026).
No end group written: not given here.

Assays:
C2C12 myotubes = experiment: DEX-induced muscle atrophy model, Western blot; assay type: cell-based; conditions: 10 μM DEX 24 h, alone or with 10 or 100 μM Myoki
Protocol: To induce C2C12 myotube differentiation, myoblasts were seeded in 6-well plates at 5 × 10^5 cells per well. Once reaching 90% confluency, they were cultured in DMEM supplemented with 2% horse serum (Thermo Fisher Scientific) and 1% penicillin-streptomycin. […] Differentiation was observed using an optical microscope (LEICA, 100×). Myotube morphology (length and diameter) was quantified in ImageJ (NIH) using the same images: myotube length was measured by tracing the long axis of each myotube (end-to-end), and myotube diameter was measured as the short-axis width at three positions along each myotube; the mean of the three width values was recorded as the diameter. For each experimental group, three randomly captured images (fields) were analyzed, and at least 15–20 myotubes per image were quantified under identical imaging settings.
Treated C2C12 cells (5 × 10^5 cells/well) were harvested in lysis buffer (Sigma-Aldrich, 2910) and centrifuged at 12,000 g for 10 min; proteins in the supernatant were collected. Protein concentrations were measured using the BCA Protein Assay Kit (Thermo Fisher Scientific). Each 20 μg sample was separated using 10% SDS–PAGE and transferred onto a polyvinylidene fluoride membrane (Millipore, Burlington, MA, USA). Non-specific binding was blocked with 5% non-fat dry milk for 1 h. The membranes were incubated overnight with primary antibodies: Anti-Myf5 (Abcam, ab125078), Anti-Myf6 (Abcam, ab182842), Anti-MyoD (Santa Cruz, sc-377460), Anti-MyoG (Santa Cruz, sc-52903), Anti-α-actinin (Santa Cruz, sc-17829), Anti-MYH3 (Santa Cruz, sc-53091), Anti-p-mTOR (Ser2448) (CST, #5536), Anti-p-Akt (Ser473) (CST, #9271), Anti-p-p70 S6 Kinase (Thr389) (CST, #9205), Anti-myostatin (Abcam, ab124721), Anti-atrogin-1/MAFbx (Santa Cruz, sc-166806), and Anti-MuRF1 (Santa Cruz, sc-398608). Membranes were then incubated for 1 h with HRP-conjugated secondary antibodies. Blot images were captured with the ECL system (Amersham, UK) and quantified using ImageJ.

[1] = system: patients with muscle atrophy (ICD-10-CM code: M62.5); experiment: Clinical trial: serum biomarkers; assay type: in vivo, human
Protocol: The study was conducted at Biosite Research Private Limited (Shanthipura, India) under the New Drugs and Clinical Trials Rules (2019) issued by CDSCO (Ministry of Health and Family Welfare, Government of India), and in compliance with GCP, applicable local regulatory requirements, the Declaration of Helsinki ([…]), ICMR guidelines (2017), and ICH-GCP E6 (R2). Ethical approval was obtained from the Excel Hospital Institutional Ethics Committee (ECR/1670/Inst/TG/2022) and ethics committees of other participating centers, and the trial was prospectively registered (CTRI/2024/01/061919). All participants provided written informed consent prior to any study procedures. Key eligibility criteria included adults aged ≥18 years with low muscle mass by DEXA (men: <7.0 kg/m^2; women: <5.4 kg/m^2) and either low handgrip strength (men: <28 kg; women: <18 kg) or low physical performance (6-m walk speed <1.0 m/s). Major exclusion criteria included uncontrolled systemic disease, musculoskeletal or neurological disorders, recent anabolic steroid use, and concomitant medications known to affect protein metabolism; full inclusion and exclusion criteria are provided in Supplementary Table S1. Of 89 patients screened, seven were screen failures and two withdrew prior to randomization; 80 eligible participants were enrolled and proceeded to the baseline/randomization visit (mean age 38.83 ± 9.91 years; range 23-69). […] The study was double-blind; participants, investigators, and study staff were unaware of treatment allocation throughout the trial. […] Efficacy endpoints were evaluated as changes from baseline to Week 12; efficacy analyses were conducted in the per-protocol population, and safety analyses included all randomized participants who received at least one dose of study product (Supplementary Figure S2). Of 80 randomized participants, 75 completed the study. Statistical analyses were performed using SAS (version 9.4; SAS Institute Inc., Cary, NC, USA). Continuous variables were summarized as N, mean (SD), median, minimum, and maximum, and categorical variables as n (%), with percentages calculated as n/N × 100. Changes from baseline to Week 12 in DEXA-assessed muscle mass, 6-m walk test, and handgrip strength were analyzed using ANCOVA, adjusting for the corresponding baseline value. Least-squares means (LSMs), 95% confidence intervals, and two-sided p-values were reported, with p < 0.05 considered statistically significant.

[2] = system: patients with muscle atrophy (ICD-10-CM code: M62.5); experiment: Clinical trial: 6-m walk test; assay type: in vivo, human
Protocol: The study was conducted at Biosite Research Private Limited (Shanthipura, India) under the New Drugs and Clinical Trials Rules (2019) issued by CDSCO (Ministry of Health and Family Welfare, Government of India), and in compliance with GCP, applicable local regulatory requirements, the Declaration of Helsinki ([…]), ICMR guidelines (2017), and ICH-GCP E6 (R2). Ethical approval was obtained from the Excel Hospital Institutional Ethics Committee (ECR/1670/Inst/TG/2022) and ethics committees of other participating centers, and the trial was prospectively registered (CTRI/2024/01/061919). All participants provided written informed consent prior to any study procedures. […] Efficacy endpoints were evaluated as changes from baseline to Week 12; efficacy analyses were conducted in the per-protocol population, and safety analyses included all randomized participants who received at least one dose of study product (Supplementary Figure S2). […] Continuous variables were summarized as N, mean (SD), median, minimum, and maximum, and categorical variables as n (%), with percentages calculated as n/N × 100. Changes from baseline to Week 12 in DEXA-assessed muscle mass, 6-m walk test, and handgrip strength were analyzed using ANCOVA, adjusting for the corresponding baseline value. […]

C2C12 cells = experiment: Indirect immunofluorescence (MyoD, MYH3) and fusion index; assay type: cell-based
Protocol: Differentiated C2C12 cells cultured on coverslips were fixed at room temperature for 10 min with PBS containing 3.7% paraformaldehyde. Next, the samples were permeabilized with 0.25% Triton X-100/PBS for 10 min, blocked with 1% BSA/PBS, and incubated overnight with primary antibodies, anti-MyoD (Santa Cruz, sc-377460) and anti-MYH3 (Santa Cruz, sc-53091), followed by washing with PBS. The samples were then incubated for 1 h Alexa Fluor 488–conjugated goat anti-mouse IgG H&L (abcam, ab150113). Nuclei were stained with 4′,6-diamidino-2-phenylindole (DAPI; blue) for 5 min. The coverslips were mounted onto glass slides using an aqueous mounting solution (Biomeda, Foster City, CA, USA) and left to dry. Images were captured using a confocal laser-scanning microscope (LEICA, Wetzlar, Germany) at ×200 and ×400 magnifications for MYH3 and MyoD, respectively. The fluorescence intensity of each marker was quantified using ImageJ. For fusion index analysis, MYH3-stained images were used to quantify myotube formation by counting the number of DAPI-positive nuclei located within MYH3-positive multinucleated myotubes (defined as MYH3-positive cells containing ≥2 nuclei) and the total number of nuclei per field. Fusion index (%) was calculated as (nuclei within MYH3-positive multinucleated myotubes/total nuclei) × 100. Fusion index was calculated from multiple randomly selected fields captured under identical imaging settings and quantified in ImageJ.

[3] = Day 3, 100 μM, fluorescence intensity, mean ± SD

## EAEYEHL-OH [Myoki]
C2C12 myotubes
  MuRF1 expression: significantly and dose-dependently reduced
  atrogin-1/MAFbx expression: significantly and dose-dependently reduced
  expression levels of differentiated muscle fiber structural proteins: dose-dependently restored toward control levels
  phosphorylation levels of muscle growth signaling proteins (Akt, mTOR, p70S6K): dose-dependently restored toward control levels
[1]; 200 mg peptide/day oral, N = 38, 95% CI (19.49 to 43.40), placebo 13.51
  IGF-1, change from baseline to Week 12 (LS mean): 31.44 ng/mL
[1]; 200 mg peptide/day oral, N = 38, 95% CI (−1.54 to 9.48), placebo 4.3
  TNF-alpha, change from baseline to Week 12 (LS mean): 3.97 pg/mL
[1]; 200 mg peptide/day oral, N = 38, 95% CI (−2.13 to 1.04), placebo 3.41
  Creatine kinase (CK-MB), change from baseline to Week 12 (LS mean): -0.54 ng/mL
[1]; 200 mg peptide/day oral, N = 38, 95% CI (−2.59 to 2.67), placebo 1.31
  IL-6, change from baseline to Week 12 (LS mean): 0.04 pg/mL
[1]; 200 mg peptide/day oral, N = 38, 95% CI (−6.14 to 0.49), placebo 2.57
  Aspartate aminotransferase, change from baseline to Week 12 (LS mean): −2.83 IU/L
[1]; 200 mg peptide/day oral, N = 38, 95% CI (−8.11 to 3.36), placebo −1.98
  Sex hormones (Estrogen), change from baseline to Week 12 (LS mean): -2.37 pg/mL
[1]; 200 mg peptide/day oral, N = 38, 95% CI (−10.33 to −2.56), placebo 8.15
  Myoglobin, change from baseline to Week 12 (LS mean): -6.45 ng/mL
[1]; 200 mg peptide/day oral, N = 38, 95% CI (−21.09 to 114.17), placebo −29.9
  Sex hormones (testosterone), change from baseline to Week 12 (LS mean): 46.54 pg/mL
[1]; Week 12, 200 mg/day, p 0.025
  Aspartate aminotransferase, difference between placebo and treatment (95% CI): −5.39 IU/L
[1]; Week 12, 200 mg/day, p 0.038
  IGF-1, difference between placebo and treatment (95% CI): 17.93 ng/mL
[1]; Week 12, 200 mg/day, p <0.01
  Creatine kinase (CK-MB), difference between placebo and treatment (95% CI): -3.95 ng/mL
  Myoglobin, difference between placebo and treatment (95% CI): -14.6 ng/mL
[2]; 200 mg peptide/day oral, N = 38, 95% CI (−1.36 to −0.87), placebo −0.77
  Time to complete 6-meter walk test (TTC-6mWT), change from baseline to Week 12 (LS mean): -1.12 s
[2]; Week 12, 200 mg/day, ANCOVA, p <0.01
  Time to complete 6-meter walk test, difference between placebo and treatment (95% CI): -0.34 s
C2C12 cells; [3]
  increase in MYH3 expression compared to the control: 191% ± 10.66%
  increase in MyoD expression compared to the control: 190% ± 46.28%
C2C12 cells; Day 6
  increase in MYH3 fluorescence staining compared to the control: 153%
